{"source": "patent US10533201B2", "about": "“Enzymatic transphosphorylation of sugar substrates” (priority 2014, dated 2020)", "format_in_all_cases": "biochemical", "key": {"[1]": {"target": "T1, αGlc 1-P phosphatase (Escherichia coli, UniProt P19926, D396N/Q163K/Y105D)", "T1 construct": "Strep-tag (N); made in house; host or cells: E. coli Origami B (DE3), cytoplasmic, pMS470_dsbC vector (DsbC co-expressed)", "T1 sequence (P19926 other isoform, or with tags, fused parts or gaps Y105D/Q163K/D396N)": "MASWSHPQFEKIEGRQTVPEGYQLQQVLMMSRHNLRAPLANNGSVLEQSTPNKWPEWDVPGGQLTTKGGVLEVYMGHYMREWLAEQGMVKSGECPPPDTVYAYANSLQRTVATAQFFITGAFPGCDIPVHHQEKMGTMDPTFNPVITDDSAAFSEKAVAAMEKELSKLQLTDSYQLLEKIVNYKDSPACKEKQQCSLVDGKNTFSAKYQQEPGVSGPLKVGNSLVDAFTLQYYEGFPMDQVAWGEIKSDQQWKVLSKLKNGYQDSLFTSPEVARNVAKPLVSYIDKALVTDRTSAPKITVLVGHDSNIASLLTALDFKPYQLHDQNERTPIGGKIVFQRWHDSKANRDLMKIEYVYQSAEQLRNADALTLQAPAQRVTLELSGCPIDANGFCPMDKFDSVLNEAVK", "conditions": "20 mM substrate; for hydrolysis by αGlc 1-P phosphatase (in words): pyrophosphate and phytate at pH 7.0 and pH 4.5", "procedure": "Inorganic phosphate was determined colorimetrically at 850 nm (56).\nHydrolysis reactions were carried out at an initial substrate concentration of 20 mM. […] Samples were taken in 15 min intervals, heat-treated (99° C., 5 min), and centrifuged at 20,000 g for 5 min. The release of phosphate was measured, and the initial rate V (mM min^−1) was determined from the linear relationship between phosphate concentration and time. […] (2)\nA series of phosphorylated sugars were tested as substrates for hydrolysis by phosphatase."}, "[2]": {"target": "T1, αGlc 1-P phosphatase", "conditions": "for Glc 1-P kcat_app (consumption) / Fru 6-P kcat_app (formation) / Fru 1-P kcat_app (formation) / Glc 6-P kcat_app (formation) / Phosphate kcat_app (release): pH 7.0, 37° C.", "procedure": "Fru 6-P was measured using an assay with mannitol 1-phosphate dehydrogenase (52). […] (1)\nFru (100, 200, 400 or 600 mM) or Glc (200 mM) was used as the acceptor substrate. […] Sampling was done to allow for determination of initial rates, but the full reaction time course was also recorded. Relevant kcat_app values for substrate consumption, phosphate release, and phosphoryl transfer were obtained from the corresponding V values using equation 2. Internal consistency of the data was always checked by mass balance. pH dependence of phosphoryl transfer. […] A 50 mM Mes buffer was used, except at pH ≤6.0 where 50 mM Mes and 20 mM sodium acetate were used, and at pH 8.0 where 50 mM Mes and 50 mM Tes were used. Buffer pH values were adjusted at 37° C. and controlled before and after recording each enzyme-catalyzed reaction. Sampling and analyses were as described above.\nFor data analysis by non-linear least-squares regression, SigmaPlot 2004 version 9.0 was used. Equation 3 describes a pH dependence where activity (expressed as logarithmic kcat_app) is constant at low pH and decreases above pKB. C is the pH-independent value of kcat_app at the optimum state of protonation, K is the proton dissociation constant and [H^+] is the proton concentration. log(kcat_app)=log(C/(1+K/[H^+])) (3) High Performance Anion Exchange Chromatography with Pulsed Amperometric Detection (HPAEC-PAD).\nSelected samples were analyzed on a Dionex BioLC system (Dionex Corporation, Sunnyvale, USA) equipped with a CarboPac PA10 column (4×250 mm) and an Amino Trap guard column (4×50 mm) thermostated at 30° C. […] Elution was carried out at a flow rate of 0.9 mL/min with the following method: isocratic flow of 52 mM NaOH for 20 min, followed by a linear gradient from 100 mM NaOAc to 400 mM NaOAc, applied within 25 min in an isocratic background of 100 mM NaOH. The column was washed for 5 min with 52 mM NaOH."}, "[3]": {"target": "glucose-1-phosphatase (Escherichia coli, UniProt P19926, D396N/Q163K/Y105D)", "sequence (P19926 other isoform, or with tags, fused parts or gaps Y105D/Q163K/D396N)": "as above", "conditions": "20 mM αGlc 1-P and 200 mM acceptor", "procedure": "FIG. 10: Acceptor substrates phosphorylated by glucose-1-phosphatase. […] Product yields were determined at conversions >90% except for N-acetyl D-glucosamine (GlcNAc) 38%, D-glucosamine (D-GlcN) 81%, D-xylose (D-Xyl) 69%, L-Arabinose (L-Ara) 86%, D-Xylitol (D-Xol) 89% and L-Fucose (L-Fuc) 75%, respectively. All acceptors are phosphorylated at the C1-OH position except for (*) D-glucosamine where the predominant product was phosphorylated at the C6-OH. Light grey bars indicate rS/rP ratio, while the dark grey bars indicate the product yield.\nProduct yields were determined at conversions >90% except for N-acetyl D-glucosamine (GlcNAc) 38%, D-glucosamine (D-GlcN) 81%, D-xylose (D-Xyl) 69%, L-Arabinose (L-Ara) 86%, D-Xylitol (D-Xol) 89% and L-Fucose (L-Fuc) 75%, respectively. All acceptors are phosphorylated at the C1-OH position except for (*) D-glucosamine where the predominant product was phosphorylated at the C6-OH. Light grey bars indicate rS/rP ratio, while the dark grey bars indicate the product yield."}, "[4]": {"conditions": "0.1 μM enzyme, 37° C., 50 mM Mes pH 7.0, n.d. = no activity above assay detection limit"}, "[5]": {"conditions": "200 mM Glc acceptor, 20 mM αGlc 1-P, pH 7.0"}, "[6]": {"conditions": "200 mM Glc acceptor, 20 mM αGlc 1-P"}}, "note": "Where two headings read alike, the source gives them in different places.", "data": [{"compound": "O=P(O)(O)O[C@H]1[C@H](OP(=O)(O)O)[C@@H](OP(=O)(O)O)[C@H](OP(=O)(O)O)[C@@H](OP(=O)(O)O)[C@H]1OP(=O)(O)O", "note": "[Phytate, myo-inositol hexakisphosphate]", "values": [{"measurement": "hydrolysis by αGlc 1-P phosphatase (in words)", "setting": "[1]", "result": "weakly active"}, {"measurement": "αGlc 1-P phosphatase kcat_app, hydrolysis", "setting": "[1]; reactions at pH 7.0 and pH 4.5 (50 mM sodium acetate), phytate active only at pH 4.5, n.d. = no activity above detection limit", "result": 2.1, "unit": "s⁻¹"}]}, {"compound": "O=P(O)(O)O[C@H]1O[C@H](CO)[C@@H](O)[C@H](O)[C@H]1O", "note": "[αGlc 1-P, alpha-glucose-1-phosphate]", "values": [{"measurement": "αGlc 1-P phosphatase kcat_app, hydrolysis", "setting": "[1]; [4]", "result": 40, "unit": "s⁻¹"}, {"measurement": "enhancement of α-Glc 1-P consumption rate compared to control without Fru", "setting": "[2]; 200 mM Fru, 20 mM α-Glc 1-P", "result": "about 3 fold"}, {"measurement": "kcat_app for α-Glc 1-P consumption", "setting": "[2]; [5]", "result": 40, "unit": "s⁻¹"}, {"measurement": "Glc 1-P kcat_app (consumption)", "setting": "[2]; Fru 0 mM, 20 mM αGlc 1-P", "result": 40, "unit": "s⁻¹"}, {"measurement": "Glc 1-P kcat_app (consumption)", "setting": "[2]; Fru 100 mM, 20 mM αGlc 1-P", "result": 73, "unit": "s⁻¹"}, {"measurement": "Glc 1-P kcat_app (consumption)", "setting": "[2]; Fru 200 mM, 20 mM αGlc 1-P", "result": 137, "unit": "s⁻¹"}, {"measurement": "Glc 1-P kcat_app (consumption)", "setting": "[2]; Fru 400 mM, 20 mM αGlc 1-P", "result": 162, "unit": "s⁻¹"}, {"measurement": "Glc 1-P kcat_app (consumption)", "setting": "[2]; Fru 600 mM, 20 mM αGlc 1-P", "result": 189, "unit": "s⁻¹"}, {"measurement": "increase of kcat_app (α-Glc 1-P) in hyperbolic dependence of the Fru concentration", "setting": "[2]; Fru 100-600 mM", "result": "about 5 fold"}]}, {"compound": "O=C(CO)[C@@H](O)[C@H](O)[C@H](O)COP(=O)(O)O", "note": "[Fru 6-P, D-fructose-6-phosphate]", "values": [{"measurement": "αGlc 1-P phosphatase kcat_app, hydrolysis", "setting": "[1]; [4]", "result": "22^a s^−1"}, {"measurement": "Fru 6-P kcat_app (formation)", "setting": "[2]; Fru 100 mM, 20 mM αGlc 1-P", "result": "11^b s^−1"}, {"measurement": "Fru 6-P kcat_app (formation)", "setting": "[2]; Fru 200 mM, 20 mM αGlc 1-P", "result": "20^ s^−1"}, {"measurement": "Fru 6-P kcat_app (formation)", "setting": "[2]; Fru 400 mM, 20 mM αGlc 1-P", "result": "28^ s^−1"}, {"measurement": "Fru 6-P kcat_app (formation)", "setting": "[2]; Fru 600 mM, 20 mM αGlc 1-P", "result": "36^c s^−1"}]}, {"compound": "O=P(O)(O)O[C@@H]1O[C@H](CO)[C@@H](O)[C@H](O)[C@H]1O", "note": "[βGlc 1-P]", "values": [{"measurement": "hydrolysis by αGlc 1-P phosphatase (in words)", "setting": "[1]", "result": "completely inactive"}]}, {"compound": "O=C(COP(=O)(O)O)[C@@H](O)[C@H](O)[C@H](O)CO", "note": "[Fru 1-P, D-fructose 1-phosphate]", "values": [{"measurement": "αGlc 1-P phosphatase kcat_app, hydrolysis", "setting": "[1]; [4]", "result": 22, "unit": "s⁻¹"}, {"measurement": "Fru 1-P kcat_app (formation)", "setting": "[2]; Fru 100 mM, 20 mM αGlc 1-P", "result": 39, "unit": "s⁻¹"}, {"measurement": "Fru 1-P kcat_app (formation)", "setting": "[2]; Fru 200 mM, 20 mM αGlc 1-P", "result": 88, "unit": "s⁻¹"}, {"measurement": "Fru 1-P kcat_app (formation)", "setting": "[2]; Fru 400 mM, 20 mM αGlc 1-P", "result": "111^a s^−1"}, {"measurement": "Fru 1-P kcat_app (formation)", "setting": "[2]; Fru 600 mM, 20 mM αGlc 1-P", "result": 135, "unit": "s⁻¹"}]}, {"compound": "N[C@H]1C(O)O[C@H](CO)[C@H](O)[C@@H]1O", "note": "(stereo partly drawn) [D-galactosamine]", "values": [{"measurement": "phosphorylation of acceptor by glucose-1-phosphatase (in words)", "setting": "[3]", "result": "not phosphorylated"}]}, {"compound": "O=C[C@H](O)[C@@H](O)[C@H](O)[C@H](O)COP(=O)(O)O", "note": "[Glc 6-P, D-glucose-6-phosphate]", "values": [{"measurement": "αGlc 1-P phosphatase kcat_app, hydrolysis", "setting": "[1]; [4]", "result": 56, "unit": "s⁻¹"}, {"measurement": "kcat_app ratio for formation of Glc 6-P and phosphate", "setting": "[2]; [6]", "result": 8.5}, {"measurement": "kcat_app for Glc 6-P synthesis", "setting": "[2]; [5]", "result": 34, "unit": "s⁻¹"}, {"measurement": "Glc 6-P kcat_app (formation)", "setting": "[2]; Fru 100 mM, 20 mM αGlc 1-P", "result": 5, "unit": "s⁻¹"}, {"measurement": "Glc 6-P kcat_app (formation)", "setting": "[2]; Fru 200 mM, 20 mM αGlc 1-P", "result": 6, "unit": "s⁻¹"}, {"measurement": "Glc 6-P kcat_app (formation)", "setting": "[2]; Fru 400 mM, 20 mM αGlc 1-P", "result": 4, "unit": "s⁻¹"}, {"measurement": "Glc 6-P kcat_app (formation)", "setting": "[2]; Fru 600 mM, 20 mM αGlc 1-P", "result": 5, "unit": "s⁻¹"}]}, {"compound": "O=C[C@H](O)[C@@H](O)[C@H](O)[C@H](O)C(=O)O", "note": "[D-Glucuronic acid]", "values": [{"measurement": "phosphorylation of acceptor by glucose-1-phosphatase (in words)", "setting": "[3]", "result": "not phosphorylated"}]}, {"compound": "phosphate", "values": [{"measurement": "decrease of phosphate release rate compared to control without Fru", "setting": "[2]; 200 mM Fru, 20 mM α-Glc 1-P", "result": "about 2 fold"}, {"measurement": "suppression of phosphate release rate compared to control reaction lacking Glc", "setting": "[2]; [6]", "result": "about 10 fold"}, {"measurement": "kcat_app of phosphate formation", "setting": "[2]; [5]", "result": 4, "unit": "s⁻¹"}, {"measurement": "Phosphate kcat_app (release)", "setting": "[2]; Fru 0 mM, 20 mM αGlc 1-P", "result": 40, "unit": "s⁻¹"}, {"measurement": "Phosphate kcat_app (release)", "setting": "[2]; Fru 100 mM, 20 mM αGlc 1-P", "result": 21, "unit": "s⁻¹"}, {"measurement": "Phosphate kcat_app (release)", "setting": "[2]; Fru 200 mM, 20 mM αGlc 1-P", "result": 18, "unit": "s⁻¹"}, {"measurement": "Phosphate kcat_app (release)", "setting": "[2]; Fru 400 mM, 20 mM αGlc 1-P", "result": 14, "unit": "s⁻¹"}, {"measurement": "Phosphate kcat_app (release)", "setting": "[2]; Fru 600 mM, 20 mM αGlc 1-P", "result": 13, "unit": "s⁻¹"}]}, {"compound": "O=P(O)(O)OP(=O)(O)O", "note": "[Pyrophosphate]", "values": [{"measurement": "hydrolysis by αGlc 1-P phosphatase (in words)", "setting": "[1]", "result": "not hydrolyzed"}]}]}
